# Source: patent US10131652B2, “Pyrimidinyloxy benzene derivatives as herbicides” (E. I. DU PONT DE NEMOURS AND COMPANY, priority 2014, dated 2018)
# Columns and labels:
# Test in all cases: Test D pre-/postemergence plant response
# Type in all cases: in vivo
# [1] = test system: giant foxtail (Setaria faberii); details: Postemergence; for Plant response rating, Foxtail, Giant: scale 0 to 100, 0 no effect, 100 complete control
# How it was run: (§1)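 0 = no effect, 100 = complete control: plants were scored this way by visual comparison with controls 13 to 15 days post-treatment. Application was preemergence to sown loam/sand pots or postemergence to 2–18 cm seedlings in peat-based mix.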
# [2] = test system: winter wheat (Triticum aestivum); details: Postemergence
# How it was run: as §1
# [3] = test system: large (Lg) crabgrass (Digitaria sanguinalis); details: Postemergence; for Plant response rating, Crabgrass, Large: scale 0 to 100, 0 no effect, 100 complete control
# How it was run: as §1
# [4] = test system: ragweed (common ragweed, Ambrosia elatior); details: Postemergence
# How it was run: as §1
# [5] = test system: pigweed (Amaranthus retroflexus); details: Postemergence
# How it was run: as §1
# [6] = test system: soybean (Glycine max); details: Postemergence
# How it was run: as §1
# [7] = test system: morningglory (Ipomoea coccinea); details: Postemergence
# How it was run: as §1
# [8] = test system: waterhemp (common waterhemp, Amaranthus rudis); details: Postemergence
# How it was run: as §1
# [9] = test system: velvetleaf (Abutilon theophrasti); details: Postemergence
# How it was run: as §1
# [10] = test system: lambsquarters (Chenopodium album); details: Postemergence
# How it was run: as §1
# [11] = test system: barnyardgrass (Echinochloa crus-galli); details: Postemergence; for Plant response rating, Barnyardgrass: scale 0 to 100, 0 no effect, 100 complete control
# How it was run: as §1
# [12] = test system: oilseed rape (Brassica napus); details: Postemergence
# How it was run: as §1
# [13] = test system: yellow nutsedge (Cyperus esculentus); details: Postemergence
# How it was run: as §1
# [14] = test system: johnsongrass (Sorghum halepense); details: Postemergence; for Plant response rating, Johnsongrass: scale 0 to 100, 0 no effect, 100 complete control
# How it was run: as §1
# [15] = test system: Italian ryegrass (Lolium multiflorum); details: Postemergence
# How it was run: as §1
# [16] = test system: blackgrass (Alopecurus myosuroides); details: Postemergence; for Plant response rating, Blackgrass: scale 0 to 100, 0 no effect, 100 complete control
# How it was run: as §1
# [17] = test system: galium (catchweed bedstraw, Galium aparine); details: Postemergence; for Plant response rating, Galium: scale 0 to 100, 0 no effect, 100 complete control
# How it was run: as §1
# [18] = test system: corn (Zea mays); details: Postemergence; for Plant response rating, Corn: scale 0 to 100, 0 no effect, 100 complete control
# How it was run: as §1
# [19] = 31 g ai/ha, scale 0 to 100 (0 no effect, 100 complete control)
# [20] = 62 g ai/ha, scale 0 to 100, 0 no effect, 100 complete control
# [21] = 125 g ai/ha, scale 0 to 100, 0 no effect, 100 complete control
structure (smiles),measurement,setting,value
Fc1cccc(Oc2ncc(Cl)cn2)c1-c1cc(C(F)(F)F)no1 [Compound 228],"Plant response rating (scale 0 to 100), Foxtail, Giant",[1]; 16 g ai/ha,10
same,"Foxtail, Giant plant response rating",[1]; [19],10
same,"Plant response rating, Foxtail, Giant",[1]; 62 g ai/ha,20
same,"Plant response rating, Foxtail, Giant",[1]; 125 g ai/ha,40
same,"Plant response rating (scale 0 to 100), Wheat",[2]; 16 g ai/ha,0
same,Wheat plant response rating,[2]; [19],5
same,Wheat plant response rating,[2]; [20],10
same,"Plant response rating, Wheat",[2]; [21],10
same,"Plant response rating (scale 0 to 100), Crabgrass, Large",[3]; 16 g ai/ha,15
same,"Crabgrass, Large plant response rating",[3]; [19],20
same,"Plant response rating, Crabgrass, Large",[3]; 62 g ai/ha,35
same,"Plant response rating, Crabgrass, Large",[3]; 125 g ai/ha,45
same,"Plant response rating (scale 0 to 100), Ragweed",[4]; 16 g ai/ha,20
same,Ragweed plant response rating,[4]; [19],35
same,Ragweed plant response rating,[4]; [20],60
same,"Plant response rating, Ragweed",[4]; [21],60
same,"Plant response rating (scale 0 to 100), Pigweed",[5]; 16 g ai/ha,85
same,Pigweed plant response rating,[5]; [19],95
same,Pigweed plant response rating,[5]; [20],95
same,"Plant response rating, Pigweed",[5]; [21],98
same,"Plant response rating (scale 0 to 100), Soybean",[6]; 16 g ai/ha,60
same,Soybean plant response rating,[6]; [19],55
same,Soybean plant response rating,[6]; [20],80
same,"Plant response rating, Soybean",[6]; [21],80
same,"Plant response rating (scale 0 to 100), Morningglory",[7]; 16 g ai/ha,65
same,Morningglory plant response rating,[7]; [19],65
same,Morningglory plant response rating,[7]; [20],80
same,"Plant response rating, Morningglory",[7]; [21],75
same,"Plant response rating (scale 0 to 100), Waterhemp",[8]; 16 g ai/ha,90
same,Waterhemp plant response rating,[8]; [19],95
same,Waterhemp plant response rating,[8]; [20],95
same,"Plant response rating, Waterhemp",[8]; [21],100
same,"Plant response rating (scale 0 to 100), Velvetleaf",[9]; 16 g ai/ha,35
same,Velvetleaf plant response rating,[9]; [19],40
same,Velvetleaf plant response rating,[9]; [20],65
same,"Plant response rating, Velvetleaf",[9]; [21],80
same,"Plant response rating (scale 0 to 100), Lambsquarters",[10]; 16 g ai/ha,85
same,Lambsquarters plant response rating,[10]; [19],85
same,Lambsquarters plant response rating,[10]; [20],90
same,"Plant response rating, Lambsquarters",[10]; [21],95
same,"Plant response rating (scale 0 to 100), Barnyardgrass",[11]; 16 g ai/ha,15
same,Barnyardgrass plant response rating,[11]; [19],20
same,"Plant response rating, Barnyardgrass",[11]; 62 g ai/ha,20
same,"Plant response rating, Barnyardgrass",[11]; 125 g ai/ha,35
same,"Plant response rating (scale 0 to 100), Oilseed Rape",[12]; 16 g ai/ha,65
same,Oilseed Rape plant response rating,[12]; [19],85
same,Oilseed Rape plant response rating,[12]; [20],80
same,"Plant response rating, Oilseed Rape",[12]; [21],98
same,"Plant response rating (scale 0 to 100), Nutsedge, Yellow",[13]; 16 g ai/ha,5
same,"Nutsedge, Yellow plant response rating",[13]; [19],5
same,"Nutsedge, Yellow plant response rating",[13]; [20],5
same,"Plant response rating, Nutsedge, Yellow",[13]; [21],10
same,"Plant response rating (scale 0 to 100), Johnsongrass",[14]; 16 g ai/ha,10
same,Johnsongrass plant response rating,[14]; [19],10
same,"Plant response rating, Johnsongrass",[14]; 62 g ai/ha,25
same,"Plant response rating, Johnsongrass",[14]; 125 g ai/ha,60
same,"Plant response rating (scale 0 to 100), Ryegrass, Italian",[15]; 16 g ai/ha,0
same,"Ryegrass, Italian plant response rating",[15]; [19],5
same,"Ryegrass, Italian plant response rating",[15]; [20],15
same,"Plant response rating, Ryegrass, Italian",[15]; [21],25
same,"Plant response rating (scale 0 to 100), Blackgrass",[16]; 16 g ai/ha,15
same,Blackgrass plant response rating,[16]; [19],15
same,"Plant response rating, Blackgrass",[16]; 62 g ai/ha,25
same,"Plant response rating, Blackgrass",[16]; 125 g ai/ha,35
same,"Plant response rating (scale 0 to 100), Galium",[17]; 16 g ai/ha,85
same,Galium plant response rating,[17]; [19],98
same,"Plant response rating, Galium",[17]; 62 g ai/ha,98
same,"Plant response rating, Galium",[17]; 125 g ai/ha,100
same,"Plant response rating (scale 0 to 100), Corn",[18]; 16 g ai/ha,5
same,Corn plant response rating,[18]; [19],10
same,"Plant response rating, Corn",[18]; 62 g ai/ha,10
same,"Plant response rating, Corn",[18]; 125 g ai/ha,10
